From patent US4968686A, “Acyclic pyrrolo [2,3-d]pyrimidine analogs as antiviral agents” (The Regents of The University of Michigan, priority 1989, dated 1990)

Assays:
HSV-1 HF strain = test: HSV-1 reduction assay, HF strain; format: cell-based, herpes simplex virus type 1 (HF strain); details: Human alphaherpesvirus 1; read-out: I50 with HF strain of HSV-1
Excerpt: The 148 strain of HSV-1 was used in most experiments and was provided by Dr. T. W. Schafer of Schering corporation. The HF strain of HSV-1 was used in selected experiments and was obtained from Dr. G. H. Cohen, University of Pennsylvania. The Towne strain, plaque-purified isolate Po, of HCMV was a gift of Dr. Mark Stinski, University of Iowa.
HSV-1 was titered using monolayer cultures of BSC-1 cells. Cells were planted at 3×10^5 cells/well using 6-well cluster dishes. MEM(E) supplemented with 10% fetal bovine serum was employed as medium. After 22-24 hours, cells were 90% confluent and were inoculated in triplicate using at least three ten-fold dilutions with 0.2 ml of the virus suspension to be assayed and incubated in a humidified 4% CO2 […] atmosphere for one hour to permit viral adsorption. Following virus adsorption, the cell sheet was overlayed with 5 ml of MEM(E) with 5% serum plus 0.5% methocel (4000 CPS) and incubated an additional two to three days. Cells were fixed and stained with 0.1% crystal violet in 20% methanol and macroscopic plaques enumerated.
Plaque reduction experiments were HSV-1 were performed using monolayer cultures of BSC-1 cells. The assay was performed exactly as described above except that the 0.2 ml virus suspension contained approximately 100 p.f.u. of HSV-1. Compounds to be tested were dissolved in the overlay medium at concentrations usually ranging from 0.1 to 100 μM in half-or-one logarithm10 dilutions. Titer reduction assays were performed by planting KB cells in 25 cm^2 plastic tissue culture flasks 10 to 24 hours prior to infection. At the onset of experiments, logarithmically growing replicate monolayer cultures were 60 to 80% confluent and contained 2.5 to 4.5×10^6 cells/flask. Medium was decanted and the cultures were infected with 2 to 10 p.f.u. of HSV-1 per cell. Virus was contained in 1.0 ml of VGM supplemented with 5% fetal bovine serum. After a 1 hour adsorption period at […], the cell sheet was rinsed twice with 2 ml of VGM without serum to remove unadsorbed virus and 5 ml of VGM containing drugs at three to five selected concentrations added in duplicate. Following an 18- to 22-hour incubation at 37° C., infected monolayers were treated with EDTA-trypsin to suspend the cells; aliquots were removed, subjected to three cycles of freezing and thawing, and stored at -76° C. for subsequent virus assay. Virus was titered on BSC-1 cells as described above.
Dose-response relationships were used to compare drug effects. These were constructed by linearly regressing the percent inhibition of parameters derived in the preceding sections against log drug concentrations. The 50% inhibitory (I50) concentrations were calculated from the regression lines using the methods described by Goldstein. […]

KB cells [1] = test: cells; format: cell-based, human; details: Homo sapiens; [3H]dThd incorporation, KB cells; read-out: I50 on [3H]dThd incorporation
Procedure: KB or HFF cells were planted using a Costar Transplate-96 (Costar, Cambridge, Mass.) in Costar 96-well cluster dishes at a concentration of 10,000 to 12,000 cells per well. Wells were suspended in 200 μl of medium [MDM(H) plus 0.7 gm/liter NaCHO3 supplemented with 10% calf serum] per well. After incubation of 16 to 24 hours at 37° C. in a humidified atmosphere of 4% CO2 in air, […] of medium was removed per well. One-hundred μl of medium with or without compounds in twice their final concentrations was added to each well using a Titertek Multichannel Pipette. Final concentrations of compounds ranged from 0.1 to 320 μM. Fifty μl of medium containing radioactive precursors also was added to each well to give a final concentration to 1 to 3 μCi/ml of labeled precursor. [^3 H]Thd was diluted with unlabeled dThd to give a final concentration of 3 or 6 μM.
Logarithmic cell growth occurred during this time with continual uptake of labeled precursors. At the end of the incubation period, cells were individually harvested from each well using a Skatron Cell harvester (Skatronh, Inc., Sterling, Va.). Cultures for individual wells were harvested onto filter paper and washed free of unincorporated label with nine sequential washes with 5% trichloroacetic acid, nine washes with water, and nine with ethanol using the Skatron unit. Filters were dried, circles from individual cultures were punched from the filter mat and placed into mini-vials. Liquid scintillation solution was added, and radioactivity determined in a Beckman model LS8100 liquid scintillation spectrometer. All samples were counted for 2.0 minutes each, with three rounds of counting. Counts per minute were determined following the application of statistical methods to eliminate count rates which fell outside distribution limits defined by Chauvenet's rejection criterion.
All analyses were performed in triplicate. That is, three culture wells were used per time point, radioactive precursor, and drug concentration in all experiments. Results from triplicate assays were converted to percent of control and plotted as log dose-response curves from which 50% inhibitor (I50) concentrations were interpolated. Three concentrations of vidarabine were included on all plates as a positive control.
Dose-response relationships were used to compare drug effects. These were constructed by linearly regressing the percent inhibition of parameters derived in the preceding sections against log drug concentrations. The 50% inhibitory (I50) concentrations were calculated from the regression lines using the methods described by Goldstein. See Goldstein, A., Biostatistics: An Introductory Text, MacMillan, N.Y., 1964, pp. 156-161. Along with the I50 concentration for visual cytotoxicity, the averaged I50 concentrations are compared to I50 concentrations for inhibition for HCMV or HSV-1 replication. Compounds for which the ratio of cytotoxicity I50 concentrations to antiviral I50 concentrations (in vitro therapeutic index) were greater than 10, were considered for further study.

HFF cells = test: Growth of HFF cells; format: cell-based, human; details: for HFF population doublings in 70 hours: 100 μM, control two doublings
Procedure: (§1) Population doubling times and cell viability were measured in uninfected HFF and/or KB cells. Cells were planted in replicate 6-well plastic tissue culture dishes or in 25 cm^2 flasks as described above in part 1. Following an incubation period during which cells attached to the substrate, medium was decanted, the cell sheet rinsed once with HBS, and fresh medium added. The medium consisted of MEM(E) with 1.1 gm NaHCO3 /liter and 10% fetal bovine or calf serum plus appropriate log or half-log concentrations of drug. After additional periods of incubation from 1 to 72 hours at 37° C., cells were harvested by means of 0.05% trypsin plus 0.02% EDTA in a HEPES-buffered salt solution. Cells were enumerated using either a Coulter counter or a hemocytometer and viability determining using trypsan blue dye exclusion.
The effect of these compounds on the growth of human diploid fibroblasts (HFF cells) was less pronounced. During a 70-hour incubation, control cells underwent two doublings. […] A 100 μM concentration reduced the number of cells by less than 10%.

KB cells [2] = test: Growth of KB cells (population doubling times); format: cell-based, human; details: for Population Doubling time: KB cells, control 23 hr
Procedure: as §1
In more extensive cytotoxicity testing, the halogenated compounds were tested for effects on the growth of KB cells. Populations doubling times were calculated from the logarithmic portions of growth curves and were as follows: […]

[3] = comparison with UMJD 102 / UMJD 183

| Structure (SMILES) | IC50 (HSV-1 HF strain) | IC50 (KB cells [1]) | Population Doubling time (KB cells [2]; 1.0 μM) | Population Doubling time (KB cells [2]; 10.0 μM) | effect on KB cell growth (in words) (KB cells [2]; [3]) | further results |
| --- | --- | --- | --- | --- | --- | --- |
| Nc1nc2c(ncn2COCCO)c(=O)[nH]1 [Acyclovir, reference compound] | 36 µM | – | – | – | – | – |
| Nc1ncnc2c1c(Cl)cn2COCCO [UMJD 100, 4-Amino-5-chloro-7-(2-hydroxyethoxymethyl)pyrrolo[2,3-d]-pyrimidine] | > 100 µM | 820 nM | 25 h | 25 h | – | effect on number of HFF cells present at 70 hours (in words) (HFF cells; 10 or 32 μM, 70 hours): no decrease in the number of cells; effect on KB cell growth (in words) (KB cells [2]; 100 μM): only a minor extent; Population Doubling time (KB cells [2]; 100.0 μM): 27 h |
| Nc1ncnc2c1c(Br)cn2COCCO [UMJD 102, 4-Amino-5-bromo-7-(2-hydroxyethoxymethyl)pyrrolo[2,3-d]-pyrimidine] | 28 µM | 130 nM | 43 h | 84 h | cytostatic | effect on growth of HFF cells relative to UMJD 100 (in words) (HFF cells): more pronounced; HFF population doublings in 70 hours (HFF cells; 70 hours): one population doubling; Population Doubling time (KB cells [2]; 0.1 μM): 30 h; minimal effective concentration (KB cells [2]; Homo sapiens, KB, read-out: lowest concentration that inhibited growth of KB cells): 0.1 µM |
| Nc1ncnc2c1c(I)cn2COCCO [UMJD 104, 4-Amino-5-iodo-7-(2-hydroxyethoxymethyl)pyrrolo[2,3-d]-pyrimidine] | 54 µM | 1200 nM | 25 h | 30 h | – | effect on growth of HFF cells relative to UMJD 100 (in words) (HFF cells): more pronounced; HFF population doublings in 70 hours (HFF cells; 70 hours): one population doubling; Population Doubling time (KB cells [2]; 0.1 μM): 26 h |
| Nc1ncnc2c1c(Br)cn2COC(CO)CO [UMJD 183, 4-amino-5-bromo-7-[(1,3-dihydroxy-2-propoxy)methyl]-pyrrolo[2,3-d]pyrimidine] | – | – | – | – | inhibited, but to a lesser extent | duration of KB cell growth in presence of drug before slowing or stopping (KB cells [2]): up to 20 hours; KB cell growth for 50 hours (in words) (KB cells [2]; up to 32 μM, 50 hours): at a reduced rate |
| Nc1ncnc2c1c(Cl)cn2COC(CO)CO [UMJD 186, 4-amino-5-chloro-7-[(1,3-dihydroxy-2-propoxy)-methyl]pyrrolo[2,3-d]pyrimidine] | – | 28000 nM | – | – | – | – |
| OCC(CO)OCn1cc(Br)c2c(NO)ncnc21 [UMJD 299, 4-hydroxylamino-5-bromo-7-[(1,3-dihydroxy-2-propoxy)methyl]pyrrolo[2,3-d]pyrimidine] | – | – | – | – | considerably lesser effects on cell growth | KB cell growth rate (in words) (KB cells [2]; 10 μM): nearly control rates |
